Laboratory results: patent US9527869B2, “Indolizine derivatives as phoshoinositide 3-kinases inhibitors” (CHIESI FARMACEUTICI S.P.A., priority 2014, dated 2016)

What was measured:
Format in all cases: biochemical
[1] = target: T1, PI3Kα (Homo sapiens, UniProt P42336); experiment: In vitro determination of the PI3K enzyme inhibitory activity in the cell free assay (ADP-Glo Kinase Assay), PI3Kα; settings: ATP 50 μM, read-out: PI3K alpha inhibition
T1 construct: purchased Millipore Ltd (Billerica, Mass.)
Procedure, shortened: (§1)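 IC50 values came from four-parameter logistic fitting of ADP-Glo luminescence after 60 min kinase reactions at room temperature. ATP (final) was set per isoform: α 50 μM, β 100 μM, γ 30 μM, δ 80 μM. Substrates were phosphatidylinositol and phosphatidylserine (50 μM in 2× Tris pH 7.5 buffer), with human recombinant enzymes.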

[2] = target: T2, PI3Kβ (Homo sapiens, UniProt P42338); experiment: In vitro determination of the PI3K enzyme inhibitory activity in the cell free assay (ADP-Glo Kinase Assay), PI3Kβ; settings: ATP 100 μM, read-out: PI3K beta inhibition
T2 construct: purchased Millipore Ltd (Billerica, Mass.)
Procedure, shortened: as §1

[3] = target: T3, PI3Kγ (Homo sapiens, UniProt P48736); experiment: In vitro determination of the PI3K enzyme inhibitory activity in the cell free assay (ADP-Glo Kinase Assay), PI3Kγ; settings: ATP 30 μM, read-out: PI3K gamma inhibition
T3 construct: purchased Millipore Ltd (Billerica, Mass.)
Procedure, shortened: as §1

[4] = target: T4, PI3Kδ (Homo sapiens, UniProt O00329); experiment: In vitro determination of the PI3K enzyme inhibitory activity in the cell free assay (ADP-Glo Kinase Assay), PI3Kδ; settings: ATP 80 μM, read-out: PI3K delta inhibition
T4 construct: purchased Millipore Ltd (Billerica, Mass.)
Procedure, shortened: as §1

T4 sequence (O00329 whole entry): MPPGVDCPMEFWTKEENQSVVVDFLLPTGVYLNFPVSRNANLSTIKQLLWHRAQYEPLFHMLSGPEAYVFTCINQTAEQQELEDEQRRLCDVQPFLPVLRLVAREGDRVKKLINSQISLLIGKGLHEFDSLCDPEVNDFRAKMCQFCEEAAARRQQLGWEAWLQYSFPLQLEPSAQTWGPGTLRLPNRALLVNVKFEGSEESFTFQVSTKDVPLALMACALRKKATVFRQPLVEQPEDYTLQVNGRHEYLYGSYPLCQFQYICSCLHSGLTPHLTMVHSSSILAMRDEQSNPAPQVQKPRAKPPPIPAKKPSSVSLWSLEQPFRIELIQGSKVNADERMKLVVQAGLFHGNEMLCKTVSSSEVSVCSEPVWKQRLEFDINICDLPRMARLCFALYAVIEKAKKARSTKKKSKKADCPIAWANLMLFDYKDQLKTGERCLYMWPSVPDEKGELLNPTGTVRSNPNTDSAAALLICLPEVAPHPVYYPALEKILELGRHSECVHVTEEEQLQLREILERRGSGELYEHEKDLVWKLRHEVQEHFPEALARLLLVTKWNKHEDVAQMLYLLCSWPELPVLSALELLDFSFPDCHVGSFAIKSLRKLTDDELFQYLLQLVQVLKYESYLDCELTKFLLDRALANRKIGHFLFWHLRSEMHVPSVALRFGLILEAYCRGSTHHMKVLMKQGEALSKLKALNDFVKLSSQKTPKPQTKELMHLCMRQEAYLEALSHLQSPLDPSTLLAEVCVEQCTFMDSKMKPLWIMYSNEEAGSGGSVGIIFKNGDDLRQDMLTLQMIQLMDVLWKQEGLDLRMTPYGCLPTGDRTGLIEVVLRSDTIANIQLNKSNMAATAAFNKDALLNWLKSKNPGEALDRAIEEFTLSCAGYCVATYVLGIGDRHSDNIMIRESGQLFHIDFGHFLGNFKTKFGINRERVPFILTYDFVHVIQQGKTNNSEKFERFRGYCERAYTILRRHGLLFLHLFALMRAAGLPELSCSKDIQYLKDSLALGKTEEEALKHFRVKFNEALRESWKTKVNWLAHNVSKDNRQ
T4 sequence (P27986 whole entry partner): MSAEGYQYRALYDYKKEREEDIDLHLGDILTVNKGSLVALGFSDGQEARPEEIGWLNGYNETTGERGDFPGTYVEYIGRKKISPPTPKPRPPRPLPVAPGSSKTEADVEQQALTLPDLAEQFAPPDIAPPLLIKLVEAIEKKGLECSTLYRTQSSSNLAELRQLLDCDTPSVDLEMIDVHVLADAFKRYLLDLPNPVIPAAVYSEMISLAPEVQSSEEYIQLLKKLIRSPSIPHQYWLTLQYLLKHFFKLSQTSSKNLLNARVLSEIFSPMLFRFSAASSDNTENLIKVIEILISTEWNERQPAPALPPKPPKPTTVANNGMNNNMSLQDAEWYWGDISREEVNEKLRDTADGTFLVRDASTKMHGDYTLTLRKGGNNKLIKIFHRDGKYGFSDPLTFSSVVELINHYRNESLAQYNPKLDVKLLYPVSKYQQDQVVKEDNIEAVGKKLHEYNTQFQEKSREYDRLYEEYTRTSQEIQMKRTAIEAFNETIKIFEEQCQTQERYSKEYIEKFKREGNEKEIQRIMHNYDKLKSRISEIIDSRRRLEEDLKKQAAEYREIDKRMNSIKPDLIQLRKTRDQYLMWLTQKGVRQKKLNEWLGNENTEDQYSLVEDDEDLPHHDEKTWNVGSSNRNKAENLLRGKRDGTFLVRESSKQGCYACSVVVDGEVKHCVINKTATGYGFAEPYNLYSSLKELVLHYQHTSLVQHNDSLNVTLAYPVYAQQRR
T2 sequence (P42338 whole entry): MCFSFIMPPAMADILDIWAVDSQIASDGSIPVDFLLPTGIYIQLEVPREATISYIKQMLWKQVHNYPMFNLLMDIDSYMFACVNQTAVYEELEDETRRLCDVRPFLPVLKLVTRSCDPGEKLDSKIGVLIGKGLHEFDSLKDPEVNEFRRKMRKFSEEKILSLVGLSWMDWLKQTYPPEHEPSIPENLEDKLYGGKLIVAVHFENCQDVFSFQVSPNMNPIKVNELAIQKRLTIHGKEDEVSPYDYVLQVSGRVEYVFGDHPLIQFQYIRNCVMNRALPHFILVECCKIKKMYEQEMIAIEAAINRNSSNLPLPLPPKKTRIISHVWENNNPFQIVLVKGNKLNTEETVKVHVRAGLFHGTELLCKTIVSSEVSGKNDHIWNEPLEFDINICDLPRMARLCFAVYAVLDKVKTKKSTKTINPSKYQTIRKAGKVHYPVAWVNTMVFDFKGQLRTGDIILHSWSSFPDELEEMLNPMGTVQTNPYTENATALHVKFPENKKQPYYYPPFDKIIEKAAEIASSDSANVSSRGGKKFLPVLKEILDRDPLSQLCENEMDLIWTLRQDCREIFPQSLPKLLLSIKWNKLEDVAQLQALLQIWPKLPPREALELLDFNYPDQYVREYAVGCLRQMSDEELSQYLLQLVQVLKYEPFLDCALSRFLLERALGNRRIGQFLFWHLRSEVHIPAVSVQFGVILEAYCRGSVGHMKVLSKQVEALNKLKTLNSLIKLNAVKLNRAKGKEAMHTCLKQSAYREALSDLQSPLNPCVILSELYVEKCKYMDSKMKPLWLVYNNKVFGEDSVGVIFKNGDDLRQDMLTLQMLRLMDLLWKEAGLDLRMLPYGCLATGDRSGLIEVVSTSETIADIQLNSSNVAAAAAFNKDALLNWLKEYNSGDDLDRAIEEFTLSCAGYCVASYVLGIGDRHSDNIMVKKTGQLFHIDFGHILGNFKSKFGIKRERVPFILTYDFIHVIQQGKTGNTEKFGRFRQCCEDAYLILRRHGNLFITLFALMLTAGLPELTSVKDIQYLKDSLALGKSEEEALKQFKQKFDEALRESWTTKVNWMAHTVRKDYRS
T2 sequence (P27986 whole entry partner): as the sequence (P27986 whole entry partner) above
T3 sequence (P48736 whole entry): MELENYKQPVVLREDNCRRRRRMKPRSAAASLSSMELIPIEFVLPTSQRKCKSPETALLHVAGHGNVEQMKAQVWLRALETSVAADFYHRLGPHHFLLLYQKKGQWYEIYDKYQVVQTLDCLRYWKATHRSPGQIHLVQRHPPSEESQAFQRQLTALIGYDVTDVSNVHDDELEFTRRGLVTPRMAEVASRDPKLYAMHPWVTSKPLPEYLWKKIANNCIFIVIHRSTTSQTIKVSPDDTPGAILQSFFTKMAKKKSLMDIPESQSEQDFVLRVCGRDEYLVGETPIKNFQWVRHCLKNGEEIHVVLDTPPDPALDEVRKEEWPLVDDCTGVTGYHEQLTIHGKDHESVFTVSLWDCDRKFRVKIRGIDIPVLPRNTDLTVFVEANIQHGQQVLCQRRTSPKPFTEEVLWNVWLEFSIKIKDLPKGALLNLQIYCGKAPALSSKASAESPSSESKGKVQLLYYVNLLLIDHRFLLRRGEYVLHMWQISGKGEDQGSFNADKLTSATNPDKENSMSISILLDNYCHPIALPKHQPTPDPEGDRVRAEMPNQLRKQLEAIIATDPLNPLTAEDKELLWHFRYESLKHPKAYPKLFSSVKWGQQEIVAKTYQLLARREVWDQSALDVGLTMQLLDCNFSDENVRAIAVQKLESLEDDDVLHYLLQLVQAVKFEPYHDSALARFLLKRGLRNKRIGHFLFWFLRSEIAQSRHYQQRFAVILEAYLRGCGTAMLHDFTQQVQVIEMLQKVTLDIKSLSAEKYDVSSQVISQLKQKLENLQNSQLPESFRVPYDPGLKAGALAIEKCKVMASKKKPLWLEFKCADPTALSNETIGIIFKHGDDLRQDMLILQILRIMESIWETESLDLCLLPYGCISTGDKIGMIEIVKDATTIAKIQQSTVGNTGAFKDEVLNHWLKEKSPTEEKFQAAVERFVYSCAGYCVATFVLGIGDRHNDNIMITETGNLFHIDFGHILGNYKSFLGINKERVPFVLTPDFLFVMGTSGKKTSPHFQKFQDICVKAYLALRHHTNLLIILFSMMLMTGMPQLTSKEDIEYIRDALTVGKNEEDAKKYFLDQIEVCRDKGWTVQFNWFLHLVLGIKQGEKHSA
T1 sequence (P42336 whole entry): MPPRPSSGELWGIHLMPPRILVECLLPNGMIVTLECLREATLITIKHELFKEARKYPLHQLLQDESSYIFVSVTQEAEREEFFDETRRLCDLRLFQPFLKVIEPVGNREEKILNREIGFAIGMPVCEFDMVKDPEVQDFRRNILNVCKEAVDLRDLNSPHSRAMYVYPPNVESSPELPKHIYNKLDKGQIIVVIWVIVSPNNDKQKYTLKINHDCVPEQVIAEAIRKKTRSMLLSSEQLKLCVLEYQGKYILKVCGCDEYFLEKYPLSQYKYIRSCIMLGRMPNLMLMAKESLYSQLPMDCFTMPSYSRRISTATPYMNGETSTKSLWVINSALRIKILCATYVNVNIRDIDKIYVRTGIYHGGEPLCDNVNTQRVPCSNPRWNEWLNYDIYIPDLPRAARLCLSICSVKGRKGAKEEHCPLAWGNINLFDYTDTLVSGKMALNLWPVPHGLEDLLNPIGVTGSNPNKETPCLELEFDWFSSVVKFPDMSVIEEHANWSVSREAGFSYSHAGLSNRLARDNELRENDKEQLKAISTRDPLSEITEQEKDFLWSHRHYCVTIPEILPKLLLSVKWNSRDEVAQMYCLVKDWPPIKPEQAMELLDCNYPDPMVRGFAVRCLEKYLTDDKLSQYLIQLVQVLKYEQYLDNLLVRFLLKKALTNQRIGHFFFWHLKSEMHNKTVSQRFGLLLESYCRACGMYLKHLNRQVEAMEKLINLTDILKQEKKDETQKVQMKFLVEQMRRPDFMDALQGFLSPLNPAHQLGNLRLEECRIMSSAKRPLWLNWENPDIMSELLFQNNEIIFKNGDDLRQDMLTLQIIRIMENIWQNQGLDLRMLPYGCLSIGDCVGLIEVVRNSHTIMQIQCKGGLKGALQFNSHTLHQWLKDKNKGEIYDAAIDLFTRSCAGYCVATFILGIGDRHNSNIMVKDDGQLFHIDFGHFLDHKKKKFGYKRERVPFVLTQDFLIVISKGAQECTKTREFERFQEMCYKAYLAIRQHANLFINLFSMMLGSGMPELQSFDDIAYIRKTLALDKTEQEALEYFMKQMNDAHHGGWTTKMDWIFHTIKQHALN
T1 sequence (P27986 whole entry partner): as the sequence (P27986 whole entry partner) above

IC50 [1] | IC50 [2] | IC50 [3] | IC50 [4] | Compound
> 1 µM | 0.01 to 1 µM | > 1 µM | 0.01 to 1 µM | CC(c1cc2ccccn2c1-c1ccccn1)n1nc(-c2cc(N)cc(F)c2)c2c(N)ncnc21 (stereo not shown) [Example 76, 3-(3-amino-5-fluorophenyl)-1-{1-[3-(pyridin-2-yl)indolizin-2-yl]ethyl}-1H-pyrazolo[3,4-d]pyrimidin-4-amine]
> 1 µM | 0.01 to 1 µM | 0.01 to 1 µM | < 0.01 µM | CC(c1cc2ccccn2c1-c1ccccn1)n1nc(-c2cc(O)cc(C#N)c2)c2c(N)ncnc21 (stereo not shown) [Example 77, 3-(4-amino-1-{1-[3-(pyridin-2-yl)indolizin-2-yl]ethyl}-1H-pyrazolo[3,4-d]pyrimidin-3-yl)-5-hydroxybenzonitrile]
> 1 µM | > 1 µM | > 1 µM | > 1 µM | CC(c1cc2ccccn2c1-c1ccccn1)n1nc(-c2cc(F)cc(-c3nnn[nH]3)c2)c2c(N)ncnc21 (stereo not shown) [Example 78, 3-[3-fluoro-5-(1H-1,2,3,4-tetrazol-5-yl)phenyl]-1-{1-[3-(pyridin-2-yl)indolizin-2-yl]ethyl}-1H-pyrazolo[3,4-d]pyrimidin-4-amine:ammonia 2:1]
> 1 µM | 0.01 to 1 µM | > 1 µM | 0.01 to 1 µM | CC(c1cc2ccccn2c1-c1ccccc1)n1nc(-c2cc(O)cc(F)c2)c2c(N)ncnc21 (stereo not shown) [Example 85, 3-{4-amino-1-[1-(3-phenylindolizin-2-yl)ethyl]-1H-pyrazolo[3,4-d]pyrimidin-3-yl}-5-fluorophenol]
> 1 µM | > 1 µM | 0.01 to 1 µM | 0.01 to 1 µM | CC(c1cc2ccccn2c1-c1ccccc1F)n1nc(-c2cc(O)cc(F)c2)c2c(N)ncnc21 (stereo not shown) [Example 86, 3-(4-amino-1-{1-[3-(2-fluorophenyl)indolizin-2-yl]ethyl}-1H-pyrazolo[3,4-d]pyrimidin-3-yl)-5-fluoro-phenol]
> 1 µM | 0.01 to 1 µM | > 1 µM | 0.01 to 1 µM | Cc1ccc2cc(C(C)n3nc(-c4cc(O)cc(F)c4)c4c(N)ncnc43)c(-c3ccccn3)n2c1 (stereo not shown) [Example 87, 3-(4-amino-1-{1-[6-methyl-3-(pyridin-2-yl)indolizin-2-yl]ethyl}-1H-pyrazolo[3,4-d]pyrimidin-3-yl)-5-fluorophenol]
> 1 µM | > 1 µM | > 1 µM | 0.01 to 1 µM | CC(c1cc2ccc(C(F)(F)F)cn2c1-c1ccccn1)n1nc(-c2cc(O)cc(F)c2)c2c(N)ncnc21 (stereo not shown) [Example 88, 3-(4-amino-1-{1-[3-(pyridin-2-yl)-6-(trifluoromethyl)indolizin-2-yl]ethyl}-1H-pyrazolo[3,4-d]pyrimidin-3-yl)-5-fluorophenol]
0.01 to 1 µM | 0.01 to 1 µM | 0.01 to 1 µM | 0.01 to 1 µM | Cc1c(C(C)n2nc(-c3cc(O)cc(F)c3)c3c(N)ncnc32)c(-c2ccccn2)n2ccccc12 (stereo not shown) [Example 89, 3-(4-amino-1-{1-[1-methyl-3-(pyridin-2-yl)indolizin-2-yl]ethyl}-1H-pyrazolo[3,4-d]pyrimidin-3-yl)-5-fluorophenol]
0.01 to 1 µM | 0.01 to 1 µM | 0.01 to 1 µM | < 0.01 µM | CC(c1cc2ccccn2c1-c1ccc(CN2CCOCC2)s1)n1nc(-c2cc(O)cc(F)c2)c2c(N)ncnc21 (stereo not shown) [Example 90, 3-[4-amino-1-(1-{3-[5-(morpholin-4-ylmethyl)thiophen-2-yl]indolizin-2-yl}ethyl)-1H-pyrazolo[3,4-d]pyrimidin-3-yl]-5-fluorophenol]
> 1 µM | > 1 µM | > 1 µM | 0.01 to 1 µM | CC(c1cc2ccccn2c1-c1ccc(CN2CCOCC2)cc1)n1nc(-c2cc(O)cc(F)c2)c2c(N)ncnc21 (stereo not shown) [Example 91, 3-[4-amino-1-(1-{3-[4-(morpholin-4-ylmethyl)phenyl]indolizin-2-yl}ethyl)-1H-pyrazolo[3,4-d]pyrimidin-3-yl]-5-fluorophenol]
> 1 µM | 0.01 to 1 µM | > 1 µM | 0.01 to 1 µM | CC(c1cc2ccccn2c1-c1ccc(CN(C)C)cc1)n1nc(-c2cc(O)cc(F)c2)c2c(N)ncnc21 (stereo not shown) [Example 92, 3-{4-amino-1-[1-(3-{4-[(dimethylamino)methyl]phenyl}indolizin-2-yl)ethyl]-1H-pyrazolo[3,4-d]pyrimidin-3-yl}-5-fluorophenol]
0.01 to 1 µM | 0.01 to 1 µM | 0.01 to 1 µM | < 0.01 µM | CC(c1cc2ccccn2c1-c1cncs1)n1nc(-c2cc(O)cc(F)c2)c2c(N)ncnc21 (stereo not shown) [Example 94, 3-(4-amino-1-{1-[3-(1,3-thiazol-5-yl)indolizin-2-yl]ethyl}-1H-pyrazolo[3,4-d]pyrimidin-3-yl)-5-fluorophenol]
0.01 to 1 µM | 0.01 to 1 µM | 0.01 to 1 µM | < 0.01 µM | CC(c1cc2ccccn2c1N1CCCC1=O)n1nc(-c2cc(O)cc(F)c2)c2c(N)ncnc21 (stereo not shown) [Example 95, 1-(2-{1-[4-amino-3-(3-fluoro-5-hydroxyphenyl)-1H-pyrazolo[3,4-d]pyrimidin-1-yl]ethyl}indolizin-3-yl)pyrrolidin-2-one]
> 1 µM | 0.01 to 1 µM | > 1 µM | < 0.01 µM | CC(c1cc2cccnn2c1-c1ccccn1)n1nc(-c2cc(O)cc(F)c2)c2c(N)ncnc21 (stereo not shown) [Example 96, 3-(4-amino-1-{1-[7-(pyridin-2-yl)pyrrolo[1,2-b]pyridazin-6-yl]ethyl}-1H-pyrazolo[3,4-d]pyrimidin-3-yl)-5-fluorophenol]
0.01 to 1 µM | 0.01 to 1 µM | 0.01 to 1 µM | < 0.01 µM | Nc1ncnc2c1c(-c1cc(O)cc(F)c1)nn2Cc1cc2ccccn2c1-c1ccccn1 [Example 97, 3-(4-amino-1-{[3-(pyridin-2-yl)indolizin-2-yl]methyl}-1H-pyrazolo[3,4-d]pyrimidin-3-yl)-5-fluorophenol]
0.01 to 1 µM | 0.01 to 1 µM | 0.01 to 1 µM | 0.01 to 1 µM | Nc1ncnc2c1c(-c1cc(O)cc(F)c1)nn2Cc1cc2ccccn2c1-c1cccnc1 [Example 98, 3-(4-amino-1-{[3-(pyridin-3-yl)indolizin-2-yl]methyl}-1H-pyrazolo[3,4-d]pyrimidin-3-yl)-5-fluorophenol]
0.01 to 1 µM | 0.01 to 1 µM | 0.01 to 1 µM | < 0.01 µM | Nc1ncnc2c1c(-c1cc(O)cc(F)c1)nn2Cc1cc2ccccn2c1-c1ccncc1 [Example 99, 3-(4-amino-1-{[3-(pyridin-4-yl)indolizin-2-yl]methyl}-1H-pyrazolo[3,4-d]pyrimidin-3-yl)-5-fluorophenol]
> 1 µM | 0.01 to 1 µM | 0.01 to 1 µM | < 0.01 µM | Nc1ncnc2c1c(-c1cc(O)cc(F)c1)nn2Cc1cc2cccnn2c1-c1ccccn1 [Example 100, 3-(4-amino-1-{[7-(pyridin-2-yl)pyrrolo[1,2-b]pyridazin-6-yl]methyl}-1H-pyrazolo[3,4-d]pyrimidin-3-yl)-5-fluorophenol]
> 1 µM | 0.01 to 1 µM | > 1 µM | 0.01 to 1 µM | CC(c1cc2ccccn2c1C1=CCNCC1)n1nc(-c2cc(O)cc(F)c2)c2c(N)ncnc21 (stereo not shown) [Example 101, 3-(4-amino-1-{1-[3-(1,2,3,6-tetrahydropyridin-4-yl)indolizin-2-yl]ethyl}-1H-pyrazolo[3,4-d]pyrimidin-3-yl)-5-fluorophenol]
> 1 µM | > 1 µM | > 1 µM | 0.01 to 1 µM | CC(c1cc2ccccn2c1-c1ccccn1)n1nc(C#CCO)c2c(N)ncnc21 (stereo not shown) [Example 102, 3-(4-amino-1-{1-[3-(pyridin-2-yl)indolizin-2-yl]ethyl}-1H-pyrazolo[3,4-d]pyrimidin-3-yl)prop-2-yn-1-ol]
> 1 µM | 0.01 to 1 µM | 0.01 to 1 µM | 0.01 to 1 µM | CC(c1cc2ccccn2c1-c1ccccn1)n1nc(-c2cnc(N)s2)c2c(N)ncnc21 (stereo not shown) [Example 103, 5-(4-amino-1-{1-[3-(pyridin-2-yl)indolizin-2-yl]ethyl}-1H-pyrazolo[3,4-d]pyrimidin-3-yl)-1,3-thiazol-2-amine]
0.01 to 1 µM | 0.01 to 1 µM | 0.01 to 1 µM | < 0.01 µM | CC(c1cc2cc(Cl)ccn2c1-c1ccccn1)n1nc(-c2cc(O)cc(F)c2)c2c(N)ncnc21 (stereo not shown) [Example 104, 3-(4-amino-1-{1-[7-chloro-3-(pyridin-2-yl)indolizin-2-yl]ethyl}-1H-pyrazolo[3,4-d]pyrimidin-3-yl)-5-fluorophenol]
> 1 µM | > 1 µM | > 1 µM | 0.01 to 1 µM | Cc1ccn2c(-c3ccccn3)c(C(C)n3nc(-c4cc(O)cc(F)c4)c4c(N)ncnc43)cc2c1 (stereo not shown) [Example 105, 3-(4-amino-1-{1-[7-methyl-3-(pyridin-2-yl)indolizin-2-yl]ethyl}-1H-pyrazolo[3,4-d]pyrimidin-3-yl)-5-fluorophenol]
> 1 µM | 0.01 to 1 µM | 0.01 to 1 µM | < 0.01 µM | Cc1cc(-c2c(C(C)n3nc(-c4cc(O)cc(F)c4)c4c(N)ncnc43)cc3ccccn23)ccn1 (stereo not shown) [Example 106, 3-(4-amino-1-{1-[3-(2-methylpyridin-4-yl)indolizin-2-yl]ethyl}-1H-pyrazolo[3,4-d]pyrimidin-3-yl)-5-fluorophenol]
> 1 µM | 0.01 to 1 µM | 0.01 to 1 µM | < 0.01 µM | Cc1cc(-c2c(C(C)n3nc(-c4cncc(O)c4)c4c(N)ncnc43)cc3ccccn23)ccn1 (stereo not shown) [Example 107, 5-(4-amino-1-{1-[3-(2-methylpyridin-4-yl)indolizin-2-yl]ethyl}-1H-pyrazolo[3,4-d]pyrimidin-3-yl)pyridin-3-ol]
